Like-named read-outs stand apart in the source and are kept apart here.
Experiments:
[1] = Cortisol-equivalent (steroidogenic) exposure of methylprednisolone; assay type: in vivo, human; details: for plasma free cortisol-equivalent AUEC24SG / plasma total cortisol-equivalent AUEC24SG: 32 mg oral daily, mean; for EmaxSG / AUEC24SG[BA]: mean (SD); for TmaxSG: median (min, max); for AUEC24SG[BA]: baseline-corrected
Procedure: Whole blood samples were drawn from each subject at predefined time points over 24 hours after oral methylprednisolone administration on study Day 1 and Day 4 for determination of plasma total and free methylprednisolone concentrations. All subjects who were in both the PK and PD populations were included in the cortisol-equivalent exposure population.
Because oral methylprednisolone is known to suppress endogenous cortisol production, PD parameters for serum total and plasma free cortisol after administration of methylprednisolone were not calculated. Instead, the cortisol-equivalent (steroidogenic) concentration (CSG) of methylprednisolone was estimated. […] Therefore, a conversion factor of 5 was applied to the methylprednisolone concentration (ConcMPD). The following equation was used to estimate the steroidogenic concentration of methylprednisolone (CSG):
CSG=(5×ConcMPo)+ConcCortisol
CSG was used to estimate the following PD parameters for the steroidogenic concentration of plasma total and free methylprednisolone: maximum observed effect for the steroidogenic concentration (CSG) concentration-time profile (EmaxSG), time of EmaxSG (TmaxSG), and area under the effect curve for the CSG concentration-time profile from time 0 to 24 hours (AUEC24SG). Baseline-corrected AUEC24SG (AUEC24SG[BA]) was calculated by subtracting the baseline (Day-1) cortisol concentrations from the time-matched Day 1 steroidogenic concentration.

[2] = Phase 1 plasma pharmacokinetics in healthy subjects; assay type: in vivo, human; details: for Cmax / half-life / AUC(0-t): plasma; for RAUC0-24 (accumulation ratio): AUC0-24 Day 4 / Day 1; for time of mean peak plasma concentration: after oral dosing
Procedure: Baseline demographics were collected during the screening period between study Day −28 and Day −3. Subjects remained at the clinic from 2 days before the first dose of study drug (Day-2) until study Day 8.
Serum samples for total cortisol and plasma samples for free cortisol, total methylprednisolone, free methylprednisolone, and ACTH1-24 were analyzed by Syneos Health (Quebec City, Quebec, Canada); plasma samples for N25D porcine ACTH1-39 were analyzed by QPS Netherlands BV (Groningen, Netherlands). Concentrations for all analytes were determined using liquid chromatography-tandem mass spectrometry methods that were validated according to the US FDA Bioanalytical Method Validation Guidance (May 2018). […]
The plasma total and free methylprednisolone were determined using a validated LC-MS/MS method developed by Syneos Health (Quebec City, Quebec, Canada). The LC-MS/MS methods for plasma total and free methylprednisolone were conducted using an Atmospheric Pressure Ionization (API) 5000 mass spectrometer (AB Sciex, Toronto, Canada) with positive electrospray ionization and multiple reaction monitoring (precursor/product ion m/z: 375/161 for methylprednisolone; 381/363 for methylprednisolone-d6, which was included as internal standard). Quantitative analysis was accomplished on an ACE Excel 2 C18-PFP (50×3.0 mm, 2 μm) column. The mobile phases were Milli-Q type water/methanol with ammonium formate and formic acid (in different proportions). The LC was run on isocratic mode followed by a column flush. The calibration range for plasma total methylprednisolone concentration was 0.500 to 500 ng/mL with LLOQ of 0.500 ng/mL. The inter- and intra-run-precision (relative SD) were ≤7%, and 8%, while the intra-run accuracy was 100% to 112%. The calibration range for plasma free cortisol concentration was 200 to […]. The inter- and intra-run-precision (relative SD) were ≤18.5% and 3%, respectively, while the intra-run accuracy was 94% to 101%.
All subjects whose PK profile contained at least 4 consecutive quantifiable concentrations were included in the PK population.
All subjects whose PK profile contained at least 4 consecutive quantifiable plasma concentrations of N25D porcine ACTH1-39, ACTH1-24, or total and free methylprednisolone were in the PK population.
PK parameters were estimated using actual blood collection times by noncompartmental methods using Phoenix® WinNonlin® 8.1. (Certara USA, Inc.). AUC0-24, AUC0-last, and AUC0-inf were calculated using the linear log trapezoidal rule. Kei was calculated using linear regression on the terminal slope of the ln-concentration versus time curve. At least 3 time points (excluding Cmax) and r^2≥0.90 were required to calculate and retain Kel and its associated parameters (t1/2 and AUC0-inf).

[3] = Safety analyses (adverse events), phase 1 study; assay type: in vivo, human
Procedure: All subjects who received at least one dose of the study drug were in the safety population. Safety was assessed via adverse events (AEs), treatment-emergent AEs (TEAEs; events that occurred after the first dose of study drug and through study completion), serious TEAEs (TESAEs), physical examinations, vital signs, 12-lead electrocardiograms (ECGs), and clinical laboratory test findings collected throughout the study.

[4] = tested on: corticosterone levels in rats; assay: Corticosterone levels in rats after RCI or ACTH; assay type: in vivo, rat
Procedure: Studies were conducted to discover the differences between repository corticotropin injection (RCI) (i.e. Acthar® gel) and synthetic adrenal corticotropin compositions (referred to as ACTH herein) on corticosterone levels in rats.
RCI (10, 40, or 400 IU/kg) or ACTH (0.6, 1.2, or 2.4 mg/kg) was administered to Sprague Dawely rats, plasma samples collected and analyzed for corticosterone.
RCI and ACTH peak corticosterone and area under the curve (AUC) were evaluated.

[5] = free cortisol (steroidogenic concentration), Day 1
[6] = free cortisol (steroidogenic concentration), Day 4
[7] = total cortisol (steroidogenic concentration), Day 1
[8] = total cortisol (steroidogenic concentration), Day 4
[9] = human, oral, 32 mg, plasma free methylprednisolone, Day 1, mean (SD)
[10] = human, oral, 32 mg, plasma free methylprednisolone, Day 4, mean (SD)

C[C@H]1C[C@@H]2[C@H]([C@@H](O)C[C@@]3(C)[C@H]2CC[C@]3(O)C(=O)CO)[C@@]2(C)C=CC(=O)C=C12 [Methylprednisolone, methylprednisolone]
plasma free cortisol-equivalent AUEC24SG ([1]; Day 1): 572.0 ng·h/mL
plasma total cortisol-equivalent AUEC24SG ([1]; Day 1): 6480.0 ng·h/mL
plasma free cortisol-equivalent AUEC24SG ([1]; Day 4): 492.0 ng·h/mL
plasma total cortisol-equivalent AUEC24SG ([1]; Day 4): 5440.0 ng·h/mL
EmaxSG [1, 5]: 124.0 (37.2) ng/mL
TmaxSG [1, 5]: 2.0 (1.0, 4.0) h
EmaxSG [1, 6]: 109.0 (26.7) ng/mL
TmaxSG [1, 6]: 2.0 (1.0, 4.0) h
AUEC24SG[BA] ([1]; free cortisol, Day 1): 553.0 (187.0) h*ng/mL
AUEC24SG[BA] ([1]; free cortisol, Day 4): 475.0 (140.0) h*ng/mL
EmaxSG [1, 7]: 1040.0 (251.0) ng/mL
TmaxSG [1, 7]: 2.0 (2.0, 4.0) h
EmaxSG [1, 8]: 959.0 (188.0) ng/mL
TmaxSG [1, 8]: 2.0 (1.0, 4.0) h
AUEC24SG[BA] ([1]; total cortisol, Day 1): 4860.0 (1680.0) h*ng/mL
AUEC24SG[BA] ([1]; total cortisol, Day 4): 4010.0 (1260.0) h*ng/mL
mean exposure of plasma free methylprednisolone as share of plasma total methylprednisolone ([2]; both days (Day 1 and Day 4)): about 8%
AUC(0-inf) [2, 9]: 106 ng·h/mL
Tmax ([2]; human, oral, 32 mg, plasma total methylprednisolone, Day 1, median (min, max)): 2 h
Cmax [2, 9]: 24.6 ng/mL
half-life [2, 9]: 1.9 h
AUC(0-t) ([2]; human, oral, 32 mg, plasma free methylprednisolone, Day 1, mean (SD), read-out: AUC0-last): 104 ng·h/mL
AUC(0-t) ([2]; human, oral, 32 mg, plasma free methylprednisolone, Day 1, n = 1, read-out: AUC0-24): 176 ng·h/mL
Cmax [2, 10]: 21.9 ng/mL
half-life [2, 10]: 2 h
AUC(0-t) ([2]; human, oral, 32 mg, plasma free methylprednisolone, Day 4, mean (SD), read-out: AUC0-last): 89.5 ng·h/mL
AUC(0-t) ([2]; human, oral, 32 mg, plasma free methylprednisolone, Day 4, n = 1, read-out: AUC0-24): 145 ng·h/mL
half-life ([2]; human, oral, 32 mg, plasma total methylprednisolone, Day 1, mean (SD)): 2.2 h
half-life ([2]; human, oral, 32 mg, plasma total methylprednisolone, Day 4, mean (SD)): 2.4 h
AUC(0-t) ([2]; human, oral, 32 mg, plasma total methylprednisolone, Day 4, mean (SD), read-out: AUC0-24): 1110 ng·h/mL
AUC(0-t) ([2]; human, oral, 32 mg, plasma total methylprednisolone, Day 4, mean (SD), read-out: AUC0-last): 919 ng·h/mL
Cmax ([2]; human, po, 32 mg, plasma total methylprednisolone, 32 mg oral daily, Day 1, mean (SD)): 198 ng/mL
Cmax ([2]; human, po, 32 mg, plasma total methylprednisolone, 32 mg oral daily, Day 4, mean (SD)): 188 ng/mL
AUC(0-t) ([2]; human, po, 32 mg, plasma total methylprednisolone, Day 1, mean (SD), read-out: AUC0-24): 1330 ng·h/mL
AUC(0-t) ([2]; human, po, 32 mg, plasma total methylprednisolone, Day 1, mean (SD), read-out: AUC0-last): 1020 ng·h/mL
AUC(0-inf) ([2]; human, po, 32 mg, plasma total methylprednisolone, Day 1, mean (SD)): 1030 ng·h/mL
RAUC0-24 (accumulation ratio) ([2]; plasma free methylprednisolone, n = 1): 0.8 (NA)
RAUC0-24 (accumulation ratio) ([2]; plasma free methylprednisolone, n = 1, listed as methylprednisolone): 0.8
time of mean peak plasma concentration ([2]; plasma free methylprednisolone): 2 h
RAUC0-24 (accumulation ratio) ([2]; plasma total methylprednisolone, mean (SD)): 0.9 (0.1)
RAUC0-24 (accumulation ratio) ([2]; plasma total methylprednisolone, mean (SD), listed as methylprednisolone): 0.9
time of mean peak plasma concentration ([2]; plasma total methylprednisolone): around 2 hours
subjects experiencing TESAEs (in words) ([3]; TESAE of pulmonary embolism in the synthetic ACTH1-24 depot group): no subjects
AEs ([3]; n = 16 per group): 17 No.
Any TESAE ([3]; n = 16 per group): 0 No. (%)
Subjects with any TEAE ([3]; n = 16 per group): 10 (62.5) No. (%)
TEAE: Contusion ([3]; n = 16 per group): 1 (6.3) No. (%)
TEAE: Dysuria ([3]; n = 16 per group): 0 No. (%)
TEAE: Headache ([3]; n = 16 per group): 2 (12.6) No. (%)
TEAE: Heart palpitations ([3]; n = 16 per group): 2 (12.5) No. (%)
TEAE: Injection site reaction ([3]; n = 16 per group): 0 No. (%)
TEAE: Insomnia ([3]; n = 16 per group): 0 No. (%)
TEAE: Somnolence ([3]; n = 16 per group): 0 No. (%)
TESAE: Pulmonary embolism ([3]; n = 16 per group): 0 No. (%)

ACTH
reduction of corticosterone AUC between ACTH doses ([4]; ACTH 0.6, 1.2, 2.4 mg/kg): no significant reduction
dose dependence of corticosterone peak ([4]; Sprague Dawely rats, plasma): not dose dependent
time of peak corticosterone ([4]; Sprague Dawely rats, plasma, RCI 10, 40, 400 IU/kg, ACTH 0.6, 1.2, 2.4 mg/kg): 8 to 24 h

— patent US20210322520A1, “METHODS OF MODULATING CORTICOSTEROID RESPONSE” (priority 2019, published 2021)
